Results taken from patent US8614236B2 (University of Washington, priority 2006, dated 2013).
“Also recorded” adds a separate entry of the source. Bridge positions count the residues as written; N and C are the ends. Ends that are not written are not given here.

Assays:
[1] = test system: carbonic anhydrase; assay: Carbonic anhydrase inhibition; format: biochemical
Description: Benzolamide (BZ) was obtained from Dr. Thomas H. Maren, University of Florida Department of Pharmacology.

[2] = test system: PASMCs; assay: Intracellular pH (pHi) in PASMCs (BCECF-AM); format: cell-based, rat
Description: (§1) The method for obtaining single PASMCs has been described previously in Shimoda L. A., et al., Am J Physiol 274: 842-853 (1998), which is hereby incorporated by reference in its entirety. Intrapulmonary arteries (200-600 μm o.d.) were isolated from male Wistar rats (250-350 g) and cleaned of connective tissue. After the lumen was gently rubbed with a cotton swab to remove the endothelial cells, the arteries were allowed to recover for 30 minutes in cold (4° C.) HBSS containing (in mM): 130 NaCl, 5 KCl, 1.2 MgCl2, 1.5 CaCl2, 10 N-[2-hydroxyethyl]piperazine-N′-[2-ethanesulfonic acid] (HEPES) and 10 glucose, with pH adjusted to 7.2 with 5 M NaOH, followed by 20 minutes in reduced-Ca^2+ (20 μM CaCl2) HBSS at room temperature. The tissue was enzymatically digested in reduced-Ca^2+ HBSS containing collagenase (type I; 1750 U/ml), papain (9.5 U/ml), bovine serum albumin (2 mg/ml) and dithiothreitol (1 mM) at 37° C. for 20 minutes. Following digestion, single smooth muscle cells were dispersed by gentle trituration with a wide-bore transfer pipette in Ca^2+-free HBSS and the cell suspension was placed on 25 mm glass cover slips. PASMCs were transiently cultured in Ham's-F-12 media supplemented with 0.5% fetal bovine serum and 1% penicillin/streptomycin for 24-48 hrs. before study.
pHi within PASMCs was monitored using the cell permeant pH sensitive dye 2′,7′-bis(carboxyethyl)-5(6)-carboxyflourescein (BCECF-AM). Cells were incubated with BCECF-AM for 60 min at 37° C. under an atmosphere of 21% O2-5% CO2. Cells were then washed with Kreb's solution for 15 min at 37° C. to remove extracellular dye and allow complete de-esterification of cytosolic dye. Cells were excited with light at 490 and 440 nm and light emitted from the cells was detected at 530 nm. The ratio of 490 to 440 nm emission was calculated and converted into pH values by performing a calibration curve after each experiment. PASMCs were subjected to a high K^+ buffer containing 10 μM nigericin, which allowed the cell to adopt the pH of the high K^+ buffer. Two high K^+/nigericin buffers were used to set pH to 6.5 or 7.5, pHi was estimated from in situ calibration after each experiment. Cells were perfused with a solution containing (in mM): 105 KCl, 1 MgCl2, 1.5 CaCl2, 10 glucose, 20 HEPES-Tris and 0.01 nigericin to allow pHi to equilibrate to external pH as in Quinn D. A., et al., Am J Respir Cell Mol Biol 5: 586-591 (1991), which is hereby incorporated by reference in its entirety. A two point calibration was created from fluorescence measured as pHi was adjusted with KOH from 6.5 to 7.5. Intracellular H^+ ion concentration ([H^+]i) was determined from pHi using the formula: pHi=−log ([H^+]i).

[3] = test system: PASMCs; assay: Hypoxia-induced increase in [Ca2+]i in PASMCs (4% O2); format: cell-based, rat
Description: as §1, with “Intrapulmonary” for “The method for obtaining single PASMCs has been described previously in Shimoda L. A., et al., Am J Physiol 274: 842-853 (1998), which is hereby incorporated by reference in its entirety. Intrapulmonary”, “The tissue was enzymatically digested in reduced-Ca^2+ HBSS containing collagenase (type I; 1750 U/ml), papain (9.5 U/ml), bovine serum albumin (2 mg/ml) and dithiothreitol (1 mM) at 37° C. for 20 minutes.” left out
(§2) Acute hypoxia increases intracellular [Ca^2+] in pulmonary arterial smooth muscle by enhancing capacitative Ca^2+ entry. […] Ratiometric measurement of fluorescence from the dye was performed on a workstation (Intracellular Imaging Inc, Cincinnati, Ohio) consisting of a Nikon TSE 100 Ellipse inverted microscope with epi-fluorescence attachments. The light beam from a xenon arc lamp was filtered at 340 and 380 nm, and focused onto the PASMCS under examination via a 20× fluorescence objective (Super Fluor 20, Nikon). Light emitted from the cell at 510 nm was returned through the objective and detected by a cooled CCD imaging camera. An electronic shutter (Sutter Instruments) was used to minimize photobleaching of dye. Protocols were executed and data collected on-line with InCyte software (Intracellular Imaging Inc). [Ca^2+]i was estimated from in vitro calibration solutions.

[4] = test system: PASMCs; assay: Basal intracellular Ca2+ concentration in PASMCs (Fura-2); format: cell-based, rat
Description: as §1, with “Intrapulmonary” for “The method for obtaining single PASMCs has been described previously in Shimoda L. A., et al., Am J Physiol 274: 842-853 (1998), which is hereby incorporated by reference in its entirety. Intrapulmonary”, “The tissue was enzymatically digested in reduced-Ca^2+ HBSS containing collagenase (type I; 1750 U/ml), papain (9.5 U/ml), bovine serum albumin (2 mg/ml) and dithiothreitol (1 mM) at 37° C. for 20 minutes.” left out
as §2

[5] = test system: PASMCs; assay: KCl-induced Ca2+ responses in PASMCs; format: cell-based, rat; conditions: 100 μM
Description: as §1, with “Intrapulmonary” for “The method for obtaining single PASMCs has been described previously in Shimoda L. A., et al., Am J Physiol 274: 842-853 (1998), which is hereby incorporated by reference in its entirety. Intrapulmonary”, “The tissue was enzymatically digested in reduced-Ca^2+ HBSS containing collagenase (type I; 1750 U/ml), papain (9.5 U/ml), bovine serum albumin (2 mg/ml) and dithiothreitol (1 mM) at 37° C. for 20 minutes.” left out
as §2

[6] = test system: PASMCs; assay: Changes in membrane potential (Em) in PASMCs, DiBAC4(3) fluorescence; format: cell-based, rat; conditions: agent alone; for increase in DiBAC4(3) fluorescence: KCl 60 mM, ET-1 10^−8 M
Description: as §1
Changes in membrane potential were measured using the fluorescence dye, DiBAC4(3), which was excited at 490 nm and detected at 510 nm. Cells were loaded by continuous perfusion with Kreb's solution containing 500 nM DiBAC4(3) and were perfused for at least 15 minutes before beginning measurements to insure stable uptake of dye. Baseline DiBAC4(3) fluorescence was monitored for 5 minutes with control Kreb's, followed by 10 minutes with Kreb's in the presence or absence of AZ (100 μM). At the end of this period, cells were challenged with KCl (60 mM) or endothelin-1 (ET-1) (10^−8 M). Since DiBAC4(3) is a single wavelength dye, any change in the concentration of the dye in the perfusion medium (i.e., differing concentrations between perfusion reservoirs) could result in a change in fluorescence that is not due to a change in membrane potential. To minimize the possibility of this type of error, all experiments were performed using inflow from a single reservoir into which AZ, KCl or ET-1 were dissolved directly.
AZ has recently been proposed to alter the activation of Ca^2+-activated K^+ channels, causing hyperpolarization. See Pickkers P., et al., Br J Pharmacol 132: 443-450 (2001); Tricarico D., et al., Ann Neurol 48: 304-312 (2000); and Tricarico D., et al., Faseb J 18: 760-761 (2004), which are hereby incorporated by reference in their entirety. Since depolarization is believed to contribute to the hypoxia-induced increase in [Ca^2+]i, AZ-induced hyperpolarization could prevent activation of voltage-gated Ca^2+ channels and an increase in [Ca^2+]i in response to hypoxia. In order to test this possibility, the Em-sensitive fluorescent dye, DiBAC4(3) was used. […] Baseline fluorescence was relatively stable over time, decreasing by 4.11±0.4% over 10 minutes (n=90 cells).

CNS(=O)(=O)c1nnc(NC(C)=O)s1 [N-Meth-AZ]
CA inhibiting action [1]: no CA inhibiting action | basal pHi, Treatment ([2]; 100 μM): 7.12±0.01 | effect on basal pHi ([2]; 100 μM): no significant effect; also recorded: minimal effect | basal pHi, Baseline ([2]; before the compound): 7.13±0.02 | increase in [Ca^2+]i induced by hypoxia ([3]; 100 μM, control 141.1±32.2 nM): 33.2 ± 17.4 nM | effect on hypoxia-induced increase in [Ca^2+]i ([3]; 10-100 μM): markedly reduced; also recorded: prevented | basal [Ca^2+]i, Treatment ([4]; 100 μM, after 10 min of perfusion): 200.9 ± 11.3 nM | basal [Ca^2+]i, Baseline ([4]; before perfusion with the compound): 193.4 ± 11.0 nM | effect on KCl-induced increase in [Ca^2+]i [5]: similar

[Cl-].[K+] [KCl]
increase in DiBAC4(3) fluorescence [6]: 61.58±12.8%

CC(N/C(=N\C#N)Nc1ccncc1)C(C)(C)C (stereo not drawn) [pinacidil]
decrease in DiBAC4(3) fluorescence ([6]; 100 μM): 19.76±3.3%

endothelin-1 (CSCSSLMDKECVYFCHLDIIW; disulfide 1-15, 3-11; ends not checked; UniProt P05305 53-73, looked up) [ET-1]
increase in DiBAC4(3) fluorescence [6]: 75.6±13.4%
